Test results taken from patent US12371454B2, “Cyclic peptide compound having Kras inhibitory action” (priority 2019, dated 2025).
pIC50: −log10 of the molar value. Starred links: 1 amine or outer side, 2 acyl side, 3 side chain; linkers in the order of their positions; H or OH if unused. Positions of bridges follow the written chain, without caps; N, C: chain ends. Non-standard residues stand in square brackets, D forms with d. Residues, ends and D or L forms follow the SMILES beside them. *: point of attachment. hPhe(3-Cl-4-CF3) = N[C@@H](CCc1ccc(C(F)(F)F)c(Cl)c1)C(=O)O; hPhe(3-F,4-CF3) = N[C@@H](CCc1ccc(C(F)(F)F)c(F)c1)C(=O)O; X85 = O=C([C@@H]1C[C@@H](n2ccnn2)CN1[*:1])[*:2]; X69 = O=C([C@@H]1C[C@H](n2ccnn2)CN1[*:1])[*:2]; NMeAla(cPent) = CN[C@@H](CC1CCCC1)C(=O)O; NMeGly(cPent) = CN[C@H](C(=O)O)C1CCCC1; mXylylene = c1cc(C[*:1])cc(C[*:2])c1; NMeCha = CN[C@@H](CC1CCCCC1)C(=O)O; cisHyp = O=C(O)[C@@H]1C[C@H](O)CN1; Hyp = O=C(O)[C@@H]1C[C@@H](O)CN1; NMeChg = CN[C@H](C(=O)O)C1CCCCC1; NMeD = CN[C@@H](CC(=O)O)C(=O)O; Benzyl(4-Cl) = Clc1ccc(C*)cc1; NMeL = CN[C@@H](CC(C)C)C(=O)O; NMeV = CN[C@H](C(=O)O)C(C)C; Azetidin(1-yl) = C1CN(*)C1; NMeA = CN[C@@H](C)C(=O)O; Piperidide = C1CCN(*)CC1; Pyrrolidide = C1CCN(*)C1; X45 = FC(F)Oc1ccc(C*)cc1; Ac5c = NC1(C(=O)O)CCCC1; Aze = O=C(O)[C@@H]1CCN1; Ethyl(2,2-F2) = FC(F)C*; Ethyl(2-OH) = OCC*; X24 = c1cncc(C*)c1; X36 = c1cc(C*)cs1; Sar = CNCC(=O)O

Tested on: Human pancreatic cancer cell line AsPC-1
Experiment: Measurement of AsPC-1 cell growth inhibition (AsPC-1 CGI)
Format: cell-based
Details: 96 h
Method in brief: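 AsPC-1 cells in 15% FBS RPMI-1640 were exposed to test compound for 96 hours at 37° C, with CellTiter-Glo as endpoint.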

Row | Structure (SMILES) | pIC50
1 | CC[C@H](C)[C@@H]1NC(=O)[C@H](CC(C)C)N(C)C(=O)C[C@@H](C(=O)N(C)C)N(C)C(=O)[C@H](C2CCCC2)N(C)C(=O)C2(CCCC2)NC(=O)[C@H](CC(=O)N2CCCC2)N(C)C(=O)[C@H](CCc2ccc(C(F)(F)F)c(Cl)c2)NC(=O)CN(C)C(=O)[C@H](CC2CCCCC2)N(C)C(=O)[C@@H]2CCN2C(=O)[C@H](C)N(C)C1=O [Compound 2097] ([NMeL]I[NMeA][Aze][NMeCha][Sar][hPhe(3-Cl-4-CF3)][NMeD](Pyrrolidide)[Ac5c][NMeGly(cPent)][NMeD]-NMe2; lactam N-11) | 6.30 to 7.00
2 | CC[C@H](C)[C@@H]1NC(=O)[C@H](CC(C)C)N(C)C(=O)C[C@@H](C(=O)N(C)C)N(C)C(=O)[C@H](C2CCCC2)N(C)C(=O)C2(CCCC2)NC(=O)[C@H](CC(=O)N2CCC2)N(C)C(=O)[C@H](CCc2ccc(C(F)(F)F)c(Cl)c2)NC(=O)CN(C)C(=O)[C@H](CC2CCCCC2)N(C)C(=O)[C@@H]2CCN2C(=O)[C@H](C)N(C)C1=O [Compound 2102] ([NMeL]I[NMeA][Aze][NMeCha][Sar][hPhe(3-Cl-4-CF3)][NMeD](Azetidin(1-yl))[Ac5c][NMeGly(cPent)][NMeD]-NMe2; lactam N-11) | 6.30 to 7.00
3 | CC[C@H](C)[C@@H]1NC(=O)[C@H](CC(C)C)N(C)C(=O)C[C@@H](C(=O)N2CCCCC2)N(C)C(=O)[C@H](C(C)C)N(C)C(=O)C2(CCCC2)NC(=O)[C@@H]2C[C@@H](n3ccnn3)CN2C(=O)[C@H](CCc2ccc(C(F)(F)F)c(Cl)c2)NC(=O)CN(C)C(=O)[C@H](CC2CCCC2)N(C)C(=O)CN(C)C(=O)CN(C)C1=O [Compound 2113, (3S,9S,18S,21S,25S,28S,34S,36R)-3-[2-[3-chloro-4-(trifluoromethyl)phenyl]ethyl]-9-(cyclopentylmethyl)-21-isobutyl-28-isopropyl-7,10,13,16,22,26,29-heptamethyl-18-[(1S)-1-methylpropyl]-25-(piperidine-1-carbonyl)-36-(triazol-1-yl)spiro[1,4,7,10,13,16,19,22,26,29,32-undecazabicyclo[32.3.0]heptatriacontane-31,1′-cyclopentane]-2,5,8,11,14,17,20,23,27,30,33-undecone] ([NMeL]I[Sar][Sar][NMeAla(cPent)][Sar][hPhe(3-Cl-4-CF3)][X85][Ac5c][NMeV][NMeD]-Piperidide; lactam N-11) | < 6.30
4 | CC[C@H](C)[C@@H]1NC(=O)[C@H](CC(C)C)N(C)C(=O)C[C@@H](C(=O)N2CCCCC2)N(C)C(=O)[C@H](C(C)C)N(C)C(=O)C2(CCCC2)NC(=O)[C@@H]2C[C@H](n3ccnn3)CN2C(=O)[C@H](CCc2ccc(C(F)(F)F)c(Cl)c2)NC(=O)CN(C)C(=O)[C@H](CC2CCCC2)N(C)C(=O)CN(C)C(=O)CN(C)C1=O [Compound 2115, (3S,9S,18S,21S,25S,28S,34S,36S)-3-[2-[3-chloro-4-(trifluoromethyl)phenyl]ethyl]-9-(cyclopentylmethyl)-21-isobutyl-28-isopropyl-7,10,13,16,22,26,29-heptamethyl-18-[(1S)-1-methylpropyl]-25-(piperidine-1-carbonyl)-36-(triazol-1-yl)spiro[1,4,7,10,13,16,19,22,26,29,32-undecazabicyclo[32.3.0]heptatriacontane-31,1′-cyclopentane]-2,5,8,11,14,17,20,23,27,30,33-undecone] ([NMeL]I[Sar][Sar][NMeAla(cPent)][Sar][hPhe(3-Cl-4-CF3)][X69][Ac5c][NMeV][NMeD]-Piperidide; lactam N-11) | < 6.30
5 | CC[C@H](C)[C@@H]1NC(=O)[C@H](CC(C)C)N(C)C(=O)C[C@@H](C(=O)N2CCCCC2)N(C)C(=O)[C@H](C2CCCCC2)N(C)C(=O)C2(CCCC2)NC(=O)[C@@H]2C[C@H](OCCO)CN2C(=O)[C@H](CCc2ccc(C(F)(F)F)c(Cl)c2)NC(=O)CN(C)C(=O)[C@H](CC2CCCCC2)N(C)C(=O)CN(C)C(=O)CN(C)C1=O [Compound 2117, (3S,9S,18S,21S,25S,28S,34S,36S)-3-[2-[3-chloro-4-(trifluoromethyl)phenyl]ethyl]-28-cyclohexyl-9-(cyclohexylmethyl)-36-(2-hydroxyethoxy)-21-isobutyl-7,10,13,16,22,26,29-heptamethyl-18-[(1S)-1-methylpropyl]-25-(piperidine-1-carbonyl)spiro[1,4,7,10,13,16,19,22,26,29,32-undecazabicyclo[32.3.0]heptatriacontane-31,1′-cyclopentane]-2,5,8,11,14,17,20,23,27,30,33-undecone] ([NMeL]I[Sar][Sar][NMeCha][Sar][hPhe(3-Cl-4-CF3)][cisHyp](Ethyl(2-OH))[Ac5c][NMeChg][NMeD]-Piperidide; lactam N-11) | 6.30 to 7.00
6 | CC[C@H](C)[C@@H]1NC(=O)[C@H](CC(C)C)N(C)C(=O)C[C@@H](C(=O)N2CCCCC2)N(C)C(=O)[C@H](C2CCCCC2)N(C)C(=O)C2(CCCC2)NC(=O)[C@@H]2C[C@@H](OCC(F)F)CN2C(=O)[C@H](CCc2ccc(C(F)(F)F)c(Cl)c2)NC(=O)CN(C)C(=O)[C@H](CC2CCCCC2)N(C)C(=O)CN(C)C(=O)CN(C)C1=O [Compound 2119] ([NMeL]I[Sar][Sar][NMeCha][Sar][hPhe(3-Cl-4-CF3)][Hyp](Ethyl(2,2-F2))[Ac5c][NMeChg][NMeD]-Piperidide; lactam N-11) | 7.30 to 7.70
7 | CC[C@H](C)[C@@H]1NC(=O)[C@H](CC(C)C)N(C)C(=O)C[C@@H](C(=O)N2CCCCC2)N(C)C(=O)[C@H](C2CCCCC2)N(C)C(=O)C2(CCCC2)NC(=O)[C@@H]2C[C@H](OCc3cccnc3)CN2C(=O)[C@H](CCc2ccc(C(F)(F)F)c(Cl)c2)NC(=O)CN(C)C(=O)[C@H](CC2CCCCC2)N(C)C(=O)CN(C)C(=O)CN(C)C1=O [Compound 2120] ([NMeL]I[Sar][Sar][NMeCha][Sar][hPhe(3-Cl-4-CF3)][cisHyp](X24)[Ac5c][NMeChg][NMeD]-Piperidide; lactam N-11) | 6.30 to 7.00
8 | CC[C@H](C)[C@@H]1NC(=O)[C@H](CC(C)C)N(C)C(=O)C[C@@H](C(=O)N2CCCCC2)N(C)C(=O)[C@H](C2CCCCC2)N(C)C(=O)C2(CCCC2)NC(=O)[C@@H]2C[C@@H](OCc3cccnc3)CN2C(=O)[C@H](CCc2ccc(C(F)(F)F)c(Cl)c2)NC(=O)CN(C)C(=O)[C@H](CC2CCCCC2)N(C)C(=O)CN(C)C(=O)CN(C)C1=O [Compound 2121] ([NMeL]I[Sar][Sar][NMeCha][Sar][hPhe(3-Cl-4-CF3)][Hyp](X24)[Ac5c][NMeChg][NMeD]-Piperidide; lactam N-11) | 7.00 to 7.30
9 | CC[C@H](C)[C@@H]1NC(=O)[C@H](CC(C)C)N(C)C(=O)C[C@@H](C(=O)N2CCCCC2)N(C)C(=O)[C@H](C2CCCCC2)N(C)C(=O)C2(CCCC2)NC(=O)[C@@H]2C[C@@H](OCCO)CN2C(=O)[C@H](CCc2ccc(C(F)(F)F)c(Cl)c2)NC(=O)CN(C)C(=O)[C@H](CC2CCCCC2)N(C)C(=O)CN(C)C(=O)CN(C)C1=O [Compound 2122, (3S,9S,18S,21S,25S,28S,34S,36R)-3-[2-[3-chloro-4-(trifluoromethyl)phenyl]ethyl]-28-cyclohexyl-9-(cyclohexylmethyl)-36-(2-hydroxyethoxy)-21-isobutyl-7,10,13,16,22,26,29-heptamethyl-18-[(1S)-1-methylpropyl]-25-(piperidine-1-carbonyl)spiro[1,4,7,10,13,16,19,22,26,29,32-undecazabicyclo[32.3.0]heptatriacontane-31,1′-cyclopentane]-2,5,8,11,14,17,20,23,27,30,33-undecone] ([NMeL]I[Sar][Sar][NMeCha][Sar][hPhe(3-Cl-4-CF3)][Hyp](Ethyl(2-OH))[Ac5c][NMeChg][NMeD]-Piperidide; lactam N-11) | 7.00 to 7.30
10 | CC[C@H](C)[C@@H]1NC(=O)[C@H](CC(C)C)N(C)C(=O)C[C@@H](C(=O)N2CCCCC2)N(C)C(=O)[C@H](C2CCCCC2)N(C)C(=O)C2(CCCC2)NC(=O)[C@@H]2C[C@H](OCC(F)F)CN2C(=O)[C@H](CCc2ccc(C(F)(F)F)c(Cl)c2)NC(=O)CN(C)C(=O)[C@H](CC2CCCCC2)N(C)C(=O)CN(C)C(=O)CN(C)C1=O [Compound 2123] ([NMeL]I[Sar][Sar][NMeCha][Sar][hPhe(3-Cl-4-CF3)][cisHyp](Ethyl(2,2-F2))[Ac5c][NMeChg][NMeD]-Piperidide; lactam N-11) | 6.30 to 7.00
11 | CC[C@H](C)[C@@H]1NC(=O)[C@H](CC(C)C)N(C)C(=O)C[C@@H](C(=O)N2CCCCC2)N(C)C(=O)[C@H](C2CCCCC2)N(C)C(=O)C2(CCCC2)NC(=O)[C@@H]2C[C@@H](OCc3ccsc3)CN2C(=O)[C@H](CCc2ccc(C(F)(F)F)c(Cl)c2)NC(=O)CN(C)C(=O)[C@H](CC2CCCCC2)N(C)C(=O)CN(C)C(=O)CN(C)C1=O [Compound 2124] ([NMeL]I[Sar][Sar][NMeCha][Sar][hPhe(3-Cl-4-CF3)][Hyp](X36)[Ac5c][NMeChg][NMeD]-Piperidide; lactam N-11) | 6.30 to 7.00
12 | CC[C@H](C)[C@@H]1NC(=O)[C@H](CC(C)C)N(C)C(=O)C[C@@H](C(=O)N2CCCCC2)N(C)C(=O)[C@H](CC(C)C)N(C)C(=O)C2(CCCC2)NC(=O)[C@@H]2C[C@@H](OCc3cccc(C)c3)CN2C(=O)[C@H](CCc2ccc(C(F)(F)F)c(F)c2)NC(=O)CN(C)C(=O)[C@H](CC2CCCCC2)N(C)C(=O)CN(C)C(=O)CN(C)C1=O [Compound 2125] ([NMeL]I[Sar][Sar][NMeCha][Sar][hPhe(3-F,4-CF3)][Hyp](mXylylene)[Ac5c][NMeL][NMeD]-Piperidide; lactam N-11) | < 6.30
13 | CC[C@H](C)[C@@H]1NC(=O)[C@H](CC(C)C)N(C)C(=O)C[C@@H](C(=O)N2CCCCC2)N(C)C(=O)[C@H](CC(C)C)N(C)C(=O)C2(CCCC2)NC(=O)[C@@H]2C[C@@H](OCc3ccc(OC(F)F)cc3)CN2C(=O)[C@H](CCc2ccc(C(F)(F)F)c(F)c2)NC(=O)CN(C)C(=O)[C@H](CC2CCCCC2)N(C)C(=O)CN(C)C(=O)CN(C)C1=O [Compound 2128] ([NMeL]I[Sar][Sar][NMeCha][Sar][hPhe(3-F,4-CF3)][Hyp](X45)[Ac5c][NMeL][NMeD]-Piperidide; lactam N-11) | < 6.30
14 | CC[C@H](C)[C@@H]1NC(=O)[C@H](CC(C)C)N(C)C(=O)C[C@@H](C(=O)N2CCCCC2)N(C)C(=O)[C@H](CC(C)C)N(C)C(=O)C2(CCCC2)NC(=O)[C@@H]2C[C@H](OCc3ccc(Cl)cc3)CN2C(=O)[C@H](CCc2ccc(C(F)(F)F)c(F)c2)NC(=O)CN(C)C(=O)[C@H](CC2CCCCC2)N(C)C(=O)CN(C)C(=O)CN(C)C1=O [Compound 2129] ([NMeL]I[Sar][Sar][NMeCha][Sar][hPhe(3-F,4-CF3)][cisHyp](Benzyl(4-Cl))[Ac5c][NMeL][NMeD]-Piperidide; lactam N-11) | < 6.30
